Assay results published in patent US6413979B1, “Substituted 5-(2,2-difluoro-1,3-benzodioxol-5-yl) cyclopentenopyridine derivative” (Banyu Pharmaceutical Co., Ltd., priority 1998, dated 2002).
Like-named read-outs stand apart in the source and are kept apart here.

Columns and labels:
[1] = 10 mg/kg as sodium salt in water, SD male rats, bioassay
Description: Concentration in Rat Plasma after Oral Administration
SD male rats (8 weeks old, n=3) were subjected to cannulation of the carotid artery beforehand and after the recovery from the surgery, subjected to a fast of one night for the test. The sodium salt of the diastereomer A prepared in Example 14, which is a representative compound of the present invention, was dissolved in water, and the resulting aqueous solution (concentration: 2.0 mg/ml) was forcibly administrated into the stomach in an amount of 10 mg/kg by gavage. Before the administration and 1, 4 and 8 hours after the administration, 120 μl of the blood was withdrawn from the cannulae in the carotid arteries with the aid of heparin and the plasma was separated by cold centrifugation. 25 μl of portions of the plasma were deproteinized by adding 100 μl of ethanol and centrifuged (10,000×g, 10 minutes, 0° C.) under cooling. 80 μl portions of the supernatants was used for a bioassay of the concentration in plasma.

[2] = test system: endothelin-induced contraction of iliac artery specimen
Description: Effect on Endothelin-induced Contraction of Iliac Artery Specimen from Rabbit
The iliac artery was excised from a rabbit and made into a spiral specimen of 1 mm wide and 10 mm long. The specimen was stripped of the endothelial cells and suspended in a 5 ml Magnus tube filled with Krebs-Henseleit solution saturated with a gas mixture of O2 (95%) and CO2 (5%), and the change in tension was isometrically measured and recorded.
The effects of a compound of the present invention on the dose-response curve obtained by cumulative addition of endothelin-1 to the Magnus tube were investigated. A compound of the present invention was added to the Magnus tube at a final concentration of 10 μM 20 minutes before the addition of endothelin-1.

[3] = biological target: T1, ETA receptor (Homo sapiens, UniProt P25101); test: Endothelin binding inhibition test on human endothelin receptors ([125I]endothelin-1), ETA
T1 construct: host or cells: human neuroblastoma SK-N-MC cells (membranes)
T1 sequence (P25101 21-427): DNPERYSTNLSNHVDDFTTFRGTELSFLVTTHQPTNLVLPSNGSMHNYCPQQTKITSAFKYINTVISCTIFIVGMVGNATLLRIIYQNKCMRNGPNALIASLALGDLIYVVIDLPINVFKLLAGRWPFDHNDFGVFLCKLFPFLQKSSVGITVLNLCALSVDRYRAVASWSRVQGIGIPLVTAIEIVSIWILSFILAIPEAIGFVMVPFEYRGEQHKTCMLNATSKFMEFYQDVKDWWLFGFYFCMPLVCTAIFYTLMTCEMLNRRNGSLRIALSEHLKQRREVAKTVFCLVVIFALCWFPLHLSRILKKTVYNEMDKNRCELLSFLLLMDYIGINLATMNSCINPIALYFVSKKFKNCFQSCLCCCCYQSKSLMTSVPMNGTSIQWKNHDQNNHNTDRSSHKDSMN
Description: (§1) Endothelin Binding Inhibition Test on Human Endothelin Recepters
The human neuroblastoma SK-N-MC cells or the human Giradi heart cells, purchased from Dainippon Seiyaku (Japan), were cultured in minimal essential medium supplemented with fetal calf serum. The cells were collected and homogenized in 10 mM MOPS buffer (pH 7.4) containing 154 mM NaCl, 10 mM KCl, 0.8 mM CaCl2 and 20% sucrose at 4° C. using a polytron homogenizer. The homogenate was then centrifuged at 10,000×g for 15 minutes. The supernatant was centrifuged at 100,000×g for 1 hour at 4° C. Then the pellet was washed with 5 mM HEPES/Tris buffer (pH 7.4). The resulting membranes (50 μl) were mixed with [^125I]endothelin-1 (20 pM) and 4 μl of DMSO solution of a test compound in 67 mM Tris/HCl buffer (pH 7.4) containing 0.13 mM phenylmethanesulfonyl fluoride, 1.3 μM pepstatin, 2.7 μM leupeptin, 1.3 mM 1,10-phenanthroline, 1.3 mM EDTA, 13 μM CaCl2, 13 μM MgCl2 and 0.13% bovine serum albumin (BSA) in a total volume of 0.35 ml. After 4 hours incubation, cold 5 mM HEPES/Tris buffer (pH 7.4) containing 0.3% BSA (Buffer B) was added to the mixture, and free and bound [^125I]endothelin-1 were separated by filtration using Whatman GF/C glass fiber filters. After the filtration, the filters were washed with buffer B, and the radioactivity on the filters was measured in a γ counter. Nonspecific binding was determined in the presence of 200 nM endothelin-1.
The concentration of a test compound of the present invention causing 50% inhibition of [^125I]endothelin-1 binding (IC50 value) was derived by the following [^125I]endothelin-1 binding inhibition D (%): [formula]
(§2) where (A): for nonspecific binding including 200 nM of unlabeled endothelin-1 as the final concentration, (B): for total binding including labeled endothelin-1 without a test compound, and (C): for binding including labeled endothelin-1 with a concentration of a test compound, show the radioactivity.

[4] = biological target: T2, ETB receptor (Homo sapiens, UniProt P24530); test: Endothelin binding inhibition test on human endothelin receptors ([125I]endothelin-1), ETB; settings: human cell membranes, 20 pM [125I]endothelin-1, 4 hours incubation
T2 construct: host or cells: human Girardi heart cells (membranes)
T2 sequence (P24530 27-442): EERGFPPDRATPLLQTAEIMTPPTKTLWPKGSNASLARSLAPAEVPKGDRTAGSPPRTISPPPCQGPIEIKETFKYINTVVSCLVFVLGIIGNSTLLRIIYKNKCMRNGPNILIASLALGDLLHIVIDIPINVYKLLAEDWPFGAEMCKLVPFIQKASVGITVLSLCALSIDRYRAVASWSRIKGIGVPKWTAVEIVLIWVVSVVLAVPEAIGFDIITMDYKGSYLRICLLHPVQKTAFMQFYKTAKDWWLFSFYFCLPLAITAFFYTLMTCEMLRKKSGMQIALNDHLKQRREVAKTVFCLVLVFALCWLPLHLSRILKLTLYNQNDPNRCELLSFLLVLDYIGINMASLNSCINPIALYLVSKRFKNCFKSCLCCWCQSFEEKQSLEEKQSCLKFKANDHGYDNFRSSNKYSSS
Description: as §1
The human neuroblastoma SK-N-MC cells or the human Giradi heart cells, purchased from Dainippon Seiyaku (Japan), were cultured in minimal essential medium supplemented with fetal calf serum. The cells were collected and homogenized in 10 mM MOPS buffer (pH 7.4) containing 154 mM NaCl, 10 mM KCl, 0.8 mM CaCl2 and 20% sucrose at 4° C. using a polytron homogenizer. The homogenate was then centrifuged at 10,000×g for 15 minutes. The supernatant was centrifuged at 100,000×g for 1 hour at 4° C. Then the pellet was washed with 5 mM HEPES/Tris buffer (pH 7.4). […] After the filtration, the filters were washed with buffer B, and the radioactivity on the filters was measured in a γ counter. Nonspecific binding was determined in the presence of 200 nM endothelin-1. […]
as §2

Compound: COc1ccc([C@@H]2c3nc(NC(C)C)ccc3[C@H](c3ccc4c(c3)OC(F)(F)O4)[C@H]2C(=O)O)c(CC(C)CO)c1 (single isomer, unassigned; diastereomer a) [diastereomer A prepared in Example 14]
- concentration in rat plasma ([1]; 1 hour after oral administration): 452 ng/mL
- concentration in rat plasma ([1]; 4 hours after oral administration): 124 ng/mL
- concentration in rat plasma ([1]; 8 hours after oral administration): 203 ng/mL
- change in the maximum response to endothelin-1 ([2]; concentrations from 0.1 μM to 10 μM): no change in the maximum response
- effect on the dose-response curve for endothelin-1 ([2]; concentrations from 0.1 μM to 10 μM, added 20 minutes before endothelin-1): appreciably shifted the dose-response curve for endothelin-1 to the right
- effect of the compound by itself on the artery specimen ([2]; without endothelin-1): no effect on the artery specimen by itself

Compound: COc1ccc([C@@H]2c3nc(NC(C)C)ccc3[C@H](c3ccc4c(c3)OC(F)(F)O4)[C@H]2C(=O)O)c(CC(C)C(=O)O)c1 (single isomer, unassigned; diastereomer a) [Diastereomer A of example 18]
- binding-inhibitory activity to ETA receptor compared with ETB receptor (in words) [3]: far higher binding-inhibitory activity to ETA receptor than to ETB receptor
- IC50 ([3]; human cell membranes, 20 pM [125I]endothelin-1, 4 hours incubation): 0.056 nM
- ETB/ETA ([3]; ratio of IC50 values): ETB/ETA = 1400
- IC50 [4]: 78 nM
